Counter-ions that a name gives are not always drawn.
What was measured:
[1] = Pharmacokinetics of IM and CGP74588 in patient plasma; type: in vivo, human; details: for increase of AUC (0–24 h) at D14 versus D10 / increase of Cmax at D14 versus D10: after IL-2 co-administration D10-D14, IM 400 mg/day; for AUC(0-inf): human, plasma
[2] = system: lymphocytes, neutrophils and platelets; test: Blood cell counts during treatment; type: in vivo, human; details: between D1 and D10, IM alone
[3] = system: GIST with KIT exon 11 mutations; details: cited from earlier work

Cc1ccc(NC(=O)c2ccc(CN3CCNCC3)cc2)cc1Nc1nccc(-c2cccnc2)n1 [CGP74588, N-desmethyl-imatinib]
accumulation ratio (D10 to D1 trough concentration ratio) ([1]; IM 400 mg/day, mean ± SD): 1.93 ± 0.69
increase of AUC (0–24 h) at D14 versus D10 [1]: 61%
increase of Cmax at D14 versus D10 [1]: 49%
AUC (0–24h) ([1]; patient #8, IL-2 dose level III, no toxicity): 13400 ng·h/mL
AUC (0–24h) ([1]; patient #10, IL-2 dose level III, grade 3 systemic capillary leak syndrome): 25100 ng·h/mL

Cc1ccc(NC(=O)c2ccc(CN3CCN(C)CC3)cc2)cc1Nc1nccc(-c2cccnc2)n1 [IM, imatinib mesylate]
increase of AUC (0–24 h) at D14 versus D10 [1]: 61%
increase of Cmax at D14 versus D10 [1]: 49%
AUC(0-inf) ([1]; im, 400 mg/day): 64100 ng·h/mL
AUC(0-inf) ([1]; oral, 400 mg): 39700 ng·h/mL
lymphocyte, neutrophil or platelet counts [2]: no significant modifications
median OS [3]: 60 mo
median time to progression [3]: 27.2 mo

From publication PMC3601177 (Oncoimmunology, 2013)
